Test results reported in patent EP0745595A1, “3-(3-Aryloxyphenyl)-1-(substituted methyl)-s-triazine-2,4,6-oxo or thiotrione herbicidal agents” (American Cyanamid Company, priority 1995, dated 1996).

Assays:
Format in all cases: in vivo
[1] = system: SAGITTARIA PYGMAEA, L.; assay: Preemergence weed control under flooded paddy conditions, SAGPY (Arrowhead (Pygmaea)); details: preemergence, 3-4 weeks after treatment
In short: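 Seeds or propagules sown in top 0.5 cm of silt loam in undrained containers, flooded 1.5 to 3 cm throughout. Compounds in aqueous/acetone 50/50 v/v pipetted into flood water at about 0.5, 0.25, 0.125 and 0.063 kg/ha. Visual 0-9 rating versus control after three to four weeks in greenhouse.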

[2] = system: […], PRESL.; assay: Preemergence weed control under flooded paddy conditions, MOOVA (Monochoria); details: preemergence, 3-4 weeks after treatment
Protocol: (§1) Results of herbicide evaluation are expressed on a rating scale (0-9). The scale is based upon a visual observation of plant stand, vigor, malformation, size, chlorosis and overall plant appearance as compared with a control.
(§2) Preemergence herbicidal activity under flooded paddy conditions is determined as follows: plant seeds or propagating organs are planted in the top 0.5 cm of silt loam soil in 32 oz. plastic containers with a diameter of 10.5 cm and no drainage holes. Water is added to these containers and maintained at 1.5 to 3 cm above the soil surface for the duration of the experiment. The test compounds are applied as aqueous/acetone mixtures 50/50 v/v pipetted directly into the flood water to give the equivalent of about 0.5, 0.25, 0.125 and 0.063 kg/ha of active ingredient. The treated containers are placed on greenhouse benches and cared for according to normal greenhouse procedures.- Three to four weeks after treatment the test is terminated and each container is examined and herbicidal effect rated according to the rating system provided in Example 40. The compounds evaluated are reported by compound number given in Example 40.
(§3) Plant species employed in this example are reported by header abbreviation, common name and scientific name.

[3] = system: CYPERUS SEROTINUS, ROTTB.; assay: Preemergence weed control under flooded paddy conditions, CYPSE (Flatsedge); details: preemergence, 3-4 weeks after treatment
Protocol: as §1
as §2, with “The test compounds are applied as aqueous/acetone mixtures 50/50 v/v pipetted directly into the flood water to give the equivalent of about 0.5, 0.25, 0.125 and 0.063 kg/ha of active ingredient.” left out
as §3

[4] = system: CYPERUS IRIA; assay: Preemergence weed control under flooded paddy conditions, CYPIR (Rice Flatsedge); details: preemergence, 3-4 weeks after treatment
Protocol: as §1
as §2, with “The test compounds are applied as aqueous/acetone mixtures 50/50 v/v pipetted directly into the flood water to give the equivalent of about 0.5, 0.25, 0.125 and 0.063 kg/ha of active ingredient.” left out
as §3

[5] = system: ORYZA SATIVA, L. TEBONNET; assay: Rice tolerance to post-transplant applications under flooded paddy conditions, ORYSAT (Rice, Tebonnet); details: post-transplant rice, 3-4 weeks after treatment
In short: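 Two ten-day-old Tebonnet rice seedlings were transplanted into silt loam and kept flooded 1.5 to 3 cm deep. Three days after transplanting, the flood surface received the compound in aqueous/acetone 50/50 v/v at about 0.5, 0.25, 0.125 or 0.063 kg/ha. Injury was rated visually on a 0-9 scale versus control after 3-4 weeks.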

[6] = system: ECHINOCHLOA ORYZOIDES (ARD.)FRITSCH; assay: Preemergence weed control under flooded paddy conditions, ECHORC (Watergrass (Calif.)); details: preemergence, 3-4 weeks after treatment
Protocol: as §1
as §2, with “The test compounds are applied as aqueous/acetone mixtures 50/50 v/v pipetted directly into the flood water to give the equivalent of about 0.5, 0.25, 0.125 and 0.063 kg/ha of active ingredient.” left out
as §3

[7] = system: CASSIA OBTUSIFOLIA, L.; assay: Postemergence herbicidal evaluation, CASOB (Sicklepod); set-up: key to CASOB rating / Herbicidal effect rating, CASOB / CASOB: 0-9 visual rating scale vs untreated control
Protocol: (§4) In the tests, seedling plants are grown in jiffy flats for about two weeks. The test compounds are dispersed in 50/50 acetone/water mixtures containing 0.5% TWEEN®20, a polyoxyethylene sorbitan monolaurate surfactant of Atlas Chemical Industries, in sufficient quantities to provide the equivalent of about 0.125 kg to 0.500 kg per hectare of active compound when applied to the plants through a spray nozzle operating at 40 psi for a predetermined time. After spraying, the plants are placed on greenhouse benches and are cared for in the usual manner, commensurate with conventional greenhouse practices. From four to five weeks after treatment, the seedling plants are examined and rated according to the rating system set forth below. Where more than one test is involved for a given compound, the data are averaged.
(§5) Plant species employed in these evaluations are reported by header abbreviation, common name and scientific name.
as §1

[8] = system: CHENOPODIUM ALBUM, L.; assay: Postemergence herbicidal evaluation, CHEAL (Lambsquarters, Common)
Protocol: as §4, with “in sufficient quantities to provide the equivalent of about 0.125 kg to 0.500 kg per hectare of active compound when applied” left out
as §5, §1

[9] = system: ECHINOCHLOA CRUS-GALLI, (L) BEAU; assay: Postemergence herbicidal evaluation, ECHCG (Barnyardgrass); set-up: key to ECHCG rating / Herbicidal effect rating, ECHCG / ECHCG: 0-9 visual rating scale vs untreated control
Protocol: as §4, §5, §1

[10] = system: SETARIA VIRIDIS, (L) BEAU; assay: Postemergence herbicidal evaluation, SETVI (Foxtail, Green); set-up: key to SETVI rating / Herbicidal effect rating, SETVI / SETVI: 0-9 visual rating scale vs untreated control
Protocol: as §4, §5, §1

[11] = system: AMBROSIA ARTEMISIIFOLIA, L.; assay: Postemergence herbicidal evaluation, AMBEL (Ragweed, Common)
Protocol: as §4, with “in sufficient quantities to provide the equivalent of about 0.125 kg to 0.500 kg per hectare of active compound when applied” left out
as §5, §1

[12] = system: GALIUM APARINE; assay: Postemergence herbicidal evaluation, GALAP (Galium); set-up: key to GALAP rating / Herbicidal effect rating, GALAP / GALAP: 0-9 visual rating scale vs untreated control
Protocol: as §4, §5, §1

[13] = system: IPOMOEA SPP.; assay: Postemergence herbicidal evaluation, IPOSS (Morningglory spp.)
In short: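 Seedlings of morningglory (Ipomoea spp.) were raised in jiffy flats for roughly two weeks. They were then sprayed postemergence through a nozzle at 40 psi with test compound dispersed in 50/50 acetone/water containing 0.5% TWEEN®20 surfactant. Plants were kept on greenhouse benches under standard care and visually rated 0-9 against controls four to five weeks after treatment.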

[14] = system: ABUTILON THEOPHRASTI, MEDIC.; assay: Postemergence herbicidal evaluation, ABUTH (Velvetleaf)
In short: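 Velvetleaf (Abutilon theophrasti) seedlings were raised in jiffy flats for about two weeks and then sprayed postemergence. The test compound was dispersed in a 50/50 acetone/water mixture containing 0.5% TWEEN®20 and applied through a nozzle operating at 40 psi. Plants were kept on greenhouse benches and rated 0-9 four to five weeks after treatment.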

[15] = system: GLYCINE MAX(L) MERR. CV. WILLIAMS; assay: Postemergence herbicidal evaluation, GLXMAW (Soybean, Williams); set-up: key to GLXMAW rating / Herbicidal effect rating, GLXMAW / GLXMAW: 0-9 visual rating scale vs untreated control
Protocol: as §4, §5, §1

C=CCn1c(=O)n(CC(=O)OCC)c(=O)n(-c2cc(Oc3ccc(C(F)(F)F)cc3Cl)ccc2[N+](=O)[O-])c1=O [Compound 13, Ethyl 3-allyl-5-{5-[(2-chloro-α,α,α-tri-fluoro-p-tolyl)oxy]-2-nitrophenyl}tetra-hydro-2,4,6-trioxo-s-triazine-1(2H)-acetate]
Herbicidal effect rating, SAGPY ([1]; 0.063 kg/ha): 0.0 | Herbicidal effect rating, SAGPY ([1]; 0.125 kg/ha): 0.0 | Herbicidal effect rating, SAGPY ([1]; 0.250 kg/ha): 0.0 | Herbicidal effect rating, SAGPY ([1]; 0.500 kg/ha): 0.0 | Herbicidal effect rating, MOOVA ([2]; 0.063 kg/ha): 9.0 | Herbicidal effect rating, MOOVA ([2]; 0.125 kg/ha): 9.0 | Herbicidal effect rating, MOOVA ([2]; 0.250 kg/ha): 9.0 | Herbicidal effect rating, MOOVA ([2]; 0.500 kg/ha): 9.0 | Herbicidal effect rating, CYPSE ([3]; 0.063 kg/ha): 0.0 | Herbicidal effect rating, CYPSE ([3]; 0.125 kg/ha): 0.0 | Herbicidal effect rating, CYPSE ([3]; 0.250 kg/ha): 0.0 | Herbicidal effect rating, CYPSE ([3]; 0.500 kg/ha): 0.0 | Herbicidal effect rating, CYPIR ([4]; 0.063 kg/ha): 9.0 | Herbicidal effect rating, CYPIR ([4]; 0.125 kg/ha): 9.0 | Herbicidal effect rating, CYPIR ([4]; 0.250 kg/ha): 9.0 | Herbicidal effect rating, CYPIR ([4]; 0.500 kg/ha): 9.0 | Herbicidal effect rating, ORYSAT ([5]; 0.063 kg/ha): 2.0 | Herbicidal effect rating, ORYSAT ([5]; 0.125 kg/ha): 2.0 | Herbicidal effect rating, ORYSAT ([5]; 0.250 kg/ha): 3.0 | Herbicidal effect rating, ORYSAT ([5]; 0.500 kg/ha): 3.0 | Herbicidal effect rating, ECHORC ([6]; 0.063 kg/ha): 9.0 | Herbicidal effect rating, ECHORC ([6]; 0.125 kg/ha): 9.0 | Herbicidal effect rating, ECHORC ([6]; 0.250 kg/ha): 9.0 | Herbicidal effect rating, ECHORC ([6]; 0.500 kg/ha): 9.0

COC(=O)Cn1c(=O)n(C)c(=O)n(-c2cc(Oc3cc(Cl)cc(Cl)c3Cl)ccc2[N+](=O)[O-])c1=O [Compound 25, Methyl 3-[2-nitro-5-(2,3,5-trichloro-phenoxy)phenyl]tetrahydro-5-methyl-2,4,6-trioxo-s-triazine-1(2H)-acetate]
CASOB rating ([7]; Rate 0.125 kg/ha): 0.0 | CASOB rating ([7]; Rate 0.250 kg/ha): 0.0 | CASOB rating ([7]; Rate 0.500 kg/ha): 0.0 | Herbicidal effect rating, SAGPY ([1]; 0.500 kg/ha): 0.0 | Herbicidal effect rating, MOOVA ([2]; 0.500 kg/ha): 0.0 | Herbicidal effect rating, CYPSE ([3]; 0.500 kg/ha): 0.0 | CHEAL rating ([8]; Rate 0.125 kg/ha): 0.0 | CHEAL rating ([8]; Rate 0.250 kg/ha): 0.0 | CHEAL rating ([8]; Rate 0.500 kg/ha): 0.0 | ECHCG rating ([9]; Rate 0.125 kg/ha): 0.0 | ECHCG rating ([9]; Rate 0.250 kg/ha): 0.0 | ECHCG rating ([9]; Rate 0.500 kg/ha): 0.0 | Herbicidal effect rating, CYPIR ([4]; 0.500 kg/ha): 0.0 | SETVI rating ([10]; Rate 0.125 kg/ha): 0.0 | SETVI rating ([10]; Rate 0.250 kg/ha): 0.0 | SETVI rating ([10]; Rate 0.500 kg/ha): 0.0 | AMBEL rating ([11]; Rate 0.125 kg/ha): 0.0 | AMBEL rating ([11]; Rate 0.250 kg/ha): 0.0 | AMBEL rating ([11]; Rate 0.500 kg/ha): 0.0 | GALAP rating ([12]; Rate 0.125 kg/ha): 0.0 | GALAP rating ([12]; Rate 0.250 kg/ha): 0.0 | GALAP rating ([12]; Rate 0.500 kg/ha): 0.0 | Herbicidal effect rating, ORYSAT ([5]; 0.500 kg/ha): 0.0 | Herbicidal effect rating, ECHORC ([6]; 0.500 kg/ha): 0.0 | IPOSS rating ([13]; Rate 0.125 kg/ha): 0.0 | IPOSS rating ([13]; Rate 0.250 kg/ha): 0.0 | IPOSS rating ([13]; Rate 0.500 kg/ha): 0.0 | ABUTH rating ([14]; Rate 0.125 kg/ha): 0.0 | ABUTH rating ([14]; Rate 0.250 kg/ha): 0.0 | ABUTH rating ([14]; Rate 0.500 kg/ha): 0.0 | GLXMAW rating ([15]; Rate 0.125 kg/ha): 0.0 | GLXMAW rating ([15]; Rate 0.250 kg/ha): 0.0 | GLXMAW rating ([15]; Rate 0.500 kg/ha): 0.0
